Measured values as given in patent US20260258397A1, “REAGENTS AND SYSTEMS FOR […]” (priority 2023, published 2026).
“And” between values parts separate entries of the source, which are not always exact repeats. Identical values can stand only once. Like-named read-outs stand apart in the source and are kept apart here.

Tests used:
PYR1^4F-M = biological target: T1, PYR1^4F-M (Arabidopsis thaliana, UniProt O49686, A160G/F159V/H115Q/H60P/N90S/Y120G); assay: PYR1 ELISA-like plate assay, immobilized PYR1^4F-M with biotinylated ΔN-HAB1^T+; assay type: binding; conditions: PYR1^4F-M ELISA-like format
T1 construct: made in house; host or cells: E. coli
T1 sequence (O49686 whole entry H60P/N90S/H115Q/Y120G/F159V/A160G, other chains not shown): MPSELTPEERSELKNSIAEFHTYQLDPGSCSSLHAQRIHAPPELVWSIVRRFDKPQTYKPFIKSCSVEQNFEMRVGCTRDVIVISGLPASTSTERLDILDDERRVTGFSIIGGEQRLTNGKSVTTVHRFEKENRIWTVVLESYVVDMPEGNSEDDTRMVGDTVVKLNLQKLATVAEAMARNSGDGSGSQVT
Procedure: PYR1 was immobilized overnight in clear plates, blocked with KPL milk diluent in buffer CBS ^17 (CBSM). All binding reactions were performed using CBSM. Detection was performed via binding a streptavidin-HRP conjugate to biotinylated ΔN-HAB1^T+ followed by incubation with a commercial TMB reagent. Lower limits of detection (LODs) were determined by linear regression of the response data in the low linear range using the formula LOD=3σy/m, where m is the slope of the response line and σy is the standard error of the y intercept using data combined from biological replicates.
Unconjugated 6×His-MBP-PYR1 variants were immobilized to Microlon clear plates (655081) using 100 μL of CBS without pH modification, at a protein concentration of 100 μg mL^−1, or 1.57 AM at 4° C. overnight. Wells assigned as no PYR controls received only CBS. Plates were sealed using Microseal B adhesive sealers (BioRad MSB-1001). […] The pellet was stored on ice until the blocked and washed plates were ready to receive the binding reactions. ΔN-HAB1^T+ was exchanged into CBSM with 1 mM DTT and 1 mM TCEP (CBSM++) using Zeba™ spin desalting columns (Thermo) were equilibrated with CBSM++. ΔN-HAB1^T+ was diluted to 10× the final binding reaction concentration and was immediately added to the pre-assembled assays in PCR plates, which were mixed by pipetting and transferred to the washed, blocked Microlon plates. […]

[1] = test system: PYR1 mutant receptors (ligand-dependent binding to HAB1); assay: Yeast two-hybrid screens and optimization for organophosphate sensors; assay type: cell-based, Arabidopsis; conditions: after four rounds of recombination-based mutagenesis (PYR1^DIAZI, PYR1^PIRI)
Procedure: Surviving cells were collected and used in subsequent positive selections for ligand-responsive receptors on SD,-Leu,-Trp,-Ura media supplemented with a specific test chemical (100 μM) for responsiveness to any of the 10-member panel of organophosphate compounds: diazinon, pirimiphos-methyl, azinphos-ethyl, dimethoate, chlorfenvinphos, disulfoton, parathion-methyl, bromophos-methyl, malathion, and monocrotophos; all compounds were purchased form (Sigma-Aldrich). Isolated colonies were tested by regrowth on ligand-containing media and by dose response using X-gal staining and Sanger sequenced (see FIG. 13a-d).
Recombination-based mutagenesis of hit receptors was used to generate subsequent molecular diversity for selection-based optimization experiments, using the same general strategy across all scaffolds utilized. […] The resulting shuffled DNA fragments were cloned into pBD, transformed into E. coli, colonies collected, and plasmids extracted.

PYR1^DIAZI = biological target: T2, PYR1^DIAZI (Arabidopsis thaliana, UniProt O49686, A160V/E8G/F108Y/F159G/L87M/M158V/V81Y); assay: cell-based; conditions: for Bottom: fit bottom of GFP fluorescence response; for Top: fit top of GFP fluorescence response
T2 construct: expressed in transfected cells; host or cells: S. cerevisiae (2µ plasmid)
T2 sequence (O49686 1-191 E8G/V81Y/L87M/F108Y/M158V/F159G/A160V): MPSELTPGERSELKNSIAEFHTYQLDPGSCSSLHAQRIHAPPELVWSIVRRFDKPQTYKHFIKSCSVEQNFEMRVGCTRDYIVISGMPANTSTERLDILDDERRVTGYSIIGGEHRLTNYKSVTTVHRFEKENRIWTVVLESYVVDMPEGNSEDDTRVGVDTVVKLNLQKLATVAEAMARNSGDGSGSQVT
T2 sequence (Q9CAJ0 178-511 partner): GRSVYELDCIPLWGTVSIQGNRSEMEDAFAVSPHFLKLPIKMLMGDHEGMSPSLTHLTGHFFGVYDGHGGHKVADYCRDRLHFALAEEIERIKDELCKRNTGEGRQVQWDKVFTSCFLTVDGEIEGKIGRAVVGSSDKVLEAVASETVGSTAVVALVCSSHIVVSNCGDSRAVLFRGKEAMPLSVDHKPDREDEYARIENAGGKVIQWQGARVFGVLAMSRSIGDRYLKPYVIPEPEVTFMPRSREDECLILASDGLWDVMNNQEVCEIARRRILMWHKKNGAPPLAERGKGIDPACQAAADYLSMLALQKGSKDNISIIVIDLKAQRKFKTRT
Excerpt: (§1) PYR1 variants were used to drive gene expression in an inducible genetic circuit by fusing a zinc finger DNA binding domain (Z4^32) to the N-terminus of PYR1, and the VP64 activation domain 33 to the N-terminus of ΔN-HAB1. The SV40 nuclear localization signal was also fused to the N-terminus of PYR1. A single 2u plasmid was used to express SV40-Z4DBD-PYR1 and VP64-HAB1, while the GFP expression cassette (Z44-CYCcore-GFP-CYC 1term) was integrated at the YPRCΔ15 site on chromosome XVI. GFP fluorescence induced by each circuit was measured 12 h after ligand addition to 1 mL cultures, 30° C. Fluorescence was measured by flow cytometry. Briefly, 50 μL of resuspended cells were transferred to a 96-well plate for analysis. The fluorescence intensity of each cell was measured using a BD Accuri C6 flow cytometer equipped with auto-loading. The forward scatter, side scatter, and GFP fluorescence (Ex/Em 488/533 nm) were recorded for a minimum of 10,000 events.
(§2) Transformed yeast cells were acquired by first inoculating 5 mL of liquid media and incubating in a shaker incubator overnight at 30° C. Cells from the overnight culture were then used to inoculate a 50 mL culture with an initial cell density of 5×10^6 cells/mL. This culture was grown at 30° C. with 200 rpm shaking until ~2×10^7 cells/mL were produced, approximately 3 to 5 hours. Cells were harvested by centrifugation at 4000 rpm for 5 min, washed with 25 mL sterile, deionized water, resuspended in 1 mL of 100 mM LiAc, and transferred to a 1.5 mL tube, producing a cell suspension with approximately 10^9 cells/mL. The cell suspension was briefly mixed by vortexing and 100 μL was transferred into a clean 1.5 mL tube for each transformation. Cells were pelleted at 13000 rpm for 15 sec and the supernatant was removed. A transformation mixture of 240 μL PEG (50% w/v), 36 μL 1.0 M LiAc, 50 μL salmon sperm DNA (2.0 mg/ml), plasmid, and sterile water were added to the cell pellet and mixed by vortexing for 1 min (total volume of 360 μL). The mixed transformation solution was then heat shocked at 42° C. for 40 min. Post heat-shock, cells were recovered by centrifugation at 8000 rpm for 30 sec. Cells resuspended in 400 μL sterile water were plated on appropriate selection media, in this case agar-SD media without uracil. Plates were incubated at 30° C. until mature colonies were formed.
(§3) Three single transformants were picked from selection plates, inoculated in 2 mL of SD-Ura containing 2% glucose in 14 mL culture tubes. After 24 hours of growth at 30° C. in a shaker incubator (200 rpm), the OD600 of each sample was measured and cultures were back diluted to OD600=0.2 in fresh SD-Ura, the total volume of diluted culture was 9 mL. Each 9 mL culture was separated into 8 unique cultures by transferring 1 mL into 8 different wells of a 96 deep-well plate. Each well was used to evaluate the effect of a specific concentration of ligand. After all the cultures were transferred, 1 μL of stock ligand solution (each stock varying in concentration) was added to each well. The plate was sealed with an air-breathable polymer film and cultured with 1000 rpm shaking at 30° C. for 12 hours. Shaker humidity was maintained at 90%. Cells were harvested by centrifuge at 5000 g for 10 min, and after discarding the supernatant, the cells were suspended in 1 mL PBS buffer and centrifuged at 5000 g for 10 min. The cells were washed with 1 mL PBS buffer twice and resuspended in 1 mL DI water for flow cytometry analysis. For flow cytometry analysis, 50 μL of resuspended cells were transferred to a 96-well plate with flat bottom, adding DI water up to final volume 200 μL. The fluorescence intensity of cells within each sample was measured using a BD Accuri C6 flow cytometer equipped with auto-loading from 96 well plates. The forward scatter, side scatter, and GFP fluorescence (Ex/Em 488/533 nm) were recorded for a minimum of 10,000 events.

PYR1^PIRI = biological target: T3, PYR1^PIRI (Arabidopsis thaliana, UniProt O49686, A160T/E130G/F159T/K59R/N119S/S122Q/S92M/V174A); assay: cell-based; conditions: for Bottom: fit bottom of GFP fluorescence response; for Top: fit top of GFP fluorescence response
T3 construct: expressed in transfected cells; host or cells: S. cerevisiae (2µ plasmid)
T3 sequence (O49686 1-191 K59R/S92M/N119S/S122Q/E130G/F159T/A160T/V174A): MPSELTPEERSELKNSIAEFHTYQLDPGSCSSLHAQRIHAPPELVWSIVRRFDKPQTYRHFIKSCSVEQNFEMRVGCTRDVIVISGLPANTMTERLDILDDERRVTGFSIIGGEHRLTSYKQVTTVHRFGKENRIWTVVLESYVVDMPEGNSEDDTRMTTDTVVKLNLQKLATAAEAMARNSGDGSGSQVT
T3 sequence (Q9CAJ0 178-511 partner): T2 sequence (Q9CAJ0 178-511 partner)
Excerpt: as §1, §2, §3

HAB1 = assay: Y2H X-gal staining of evolved sensors: ligand responsiveness and cross reaction; assay type: cell-based, Arabidopsis; conditions: ligands WIN 55,212-2, 4F-MDMB-BUTINACA, AB-PINACA, JWH-072; PYR1^JWH-072 to low μM WIN 55,212-2, PYR1^4F to low μM AB-PINACA
Procedure: High-affinity sensors were tested for cross reaction using both Y2H and in vitro PP2C assays. […] Similar methods were used to characterize PYR1^PIRI and PYR1^WIN sensor selectivity and sensitivity.
The PYL2 coding sequence cloned in the Y2H pBD vector was used as template to incorporate the corresponding PYR1^WIN and PYR1^4F homologous residues via site directed mutagenesis using the QuikChange Lightning Multi Site-Directed mutagenesis kit (Agilent Technologies). Resulting clones PYL2^WIN (K64Q, F165A, V1661) and PYL2^4F (H119Q, Y124G, F165V, V166G) were sequence confirmed and incorporated into MAV99 harboring pACT-HAB1 and tested for ligand activation using uracil-independent growth and X-gal staining experiments. The same method was used to generate a PYL2^WIN version in a protein expression vector for crystallization studies.

With COC(=O)[C@@H](NC(=O)c1nn(CCCCF)c2ccccc12)C(C)(C)C [4F-MDMB, 4F-MDMB-BUTINACA] the “average LOD from two biological replicates” value (PYR1^4F-M) was 6 nM and 2.2 ng/ml.
With CCOP(=S)(OCC)Oc1cc(C)nc(C(C)C)n1 [Diazinon, diazinon] the “ligand concentration to which optimized sensors respond” value [1] was 10 nM, the Bottom (PYR1^DIAZI; PYR1-DIAZI) was 17196 and the Top (PYR1^DIAZI; PYR1-DIAZI) was 103999. The EC50 (PYR1^DIAZI; PYR1-DIAZI, no unit in table (text b82 gives the same values in nM), read-out: EC50) was 43.1 nM, the EC50 (PYR1^DIAZI; PYR1^DIAZI, yeast-transcription circuit, read-out: EC50) was 43 nM and the “EC50 to diazinon lower than all other molecules profiled” value (PYR1^DIAZI; PYR1^DIAZI, selectivity versus panel of chemically similar organophosphates) was “greater than 10 fold”. The Bottom (PYR1^PIRI; PYR1-PIRI) was 19123, the Top (PYR1^PIRI; PYR1-PIRI) was 109997 and the EC50 (PYR1^PIRI; PYR1-PIRI, no unit in table (text b82 gives the same values in nM/μM), read-out: EC50) was 1010 nM. For the same compound, the EC50 (PYR1^PIRI; PYR1^PIRI, yeast-transcription circuit, strongest off-target response, read-out: EC50) was 1000 nM and the “EC50 higher than that with pirimiphos” value (PYR1^PIRI; PYR1^PIRI, off-target diazinon versus pirimiphos) was 50 fold.
For CCN(CC)c1nc(C)cc(OP(=S)(OC)OC)n1 [Pirimiphos, pirimiphos-methyl], the “ligand concentration to which optimized sensors respond” value [1] was 10 nM, the EC50 (PYR1^DIAZI) was 17400 nM and the Bottom (PYR1^DIAZI; PYR1-DIAZI) was 14673. It also gave a Top (PYR1^DIAZI; PYR1-DIAZI) of 88148, an EC50 (PYR1^PIRI) of 20 nM and a Bottom (PYR1^PIRI; PYR1-PIRI) of 12745. For the same compound, the Top (PYR1^PIRI; PYR1-PIRI) was 105951.
“PYR1^JWH-072: PYR1 variant sensor for JWH-072; cannabinoid receptor sequence (MPSGLTPEERSELKNSIAEFHTYQLDPGSCSSLHAQRIHAPPELVWSIVRRFDKPQTYN)” was tested, and the “cross-reactivity to off-target cannabinoid ligands” value (HAB1) was “modest cross-reactivity”.
